The results in this text go back to publication PMC5702532 (Bioconjugate chemistry, 2016).

Experiment [1] concerns MCF-7, MDA-MB-231, A-549 and PC-3 cells. In words: Confocal fluorescence detection of cell entry in live carcinoma cells. The class given is cell-based, human. Particulars: 10 μM in media for 60 min; live cells washed 3×; confocal microscopy, TAMRA filter; breast (MCF-7, MDA-MB-231), lung (A-549), prostate (PC-3).
Experiment [2] concerns the target XPNPEP1, APaseP human recombinant protein (Homo sapiens, UniProt Q9NQW7). In words: Biacore binding affinity assay. (SPR reads the build-up and loss of mass on a sensor chip optically.)

Bridge positions count the residues as written; N and C are the ends. Ends that are not written are not given here.

Sequence of XPNPEP1, APaseP human recombinant protein (Q9NQW7 whole entry): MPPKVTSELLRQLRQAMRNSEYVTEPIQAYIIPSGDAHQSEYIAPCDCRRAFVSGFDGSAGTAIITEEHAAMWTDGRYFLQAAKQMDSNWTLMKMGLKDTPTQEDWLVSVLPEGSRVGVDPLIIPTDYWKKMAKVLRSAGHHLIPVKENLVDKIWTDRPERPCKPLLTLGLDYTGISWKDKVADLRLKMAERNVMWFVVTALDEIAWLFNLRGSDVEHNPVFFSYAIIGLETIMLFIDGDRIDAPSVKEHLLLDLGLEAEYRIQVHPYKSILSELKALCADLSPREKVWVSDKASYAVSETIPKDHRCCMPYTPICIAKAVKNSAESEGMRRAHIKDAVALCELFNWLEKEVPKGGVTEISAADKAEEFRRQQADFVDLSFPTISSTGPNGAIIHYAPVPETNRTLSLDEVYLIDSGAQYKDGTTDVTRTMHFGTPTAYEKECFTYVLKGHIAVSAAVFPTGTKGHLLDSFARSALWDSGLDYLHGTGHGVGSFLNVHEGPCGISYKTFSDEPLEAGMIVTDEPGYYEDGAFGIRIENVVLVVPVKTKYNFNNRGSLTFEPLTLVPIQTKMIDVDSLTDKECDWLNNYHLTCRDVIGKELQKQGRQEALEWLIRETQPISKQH

Regarding CPGPEGAGC (disulfide 1-9 (inferred)), in experiment [1], the “Cell entry (fluorescence detection)” value is given as “did not enter breast-derived cells”.
On to RPPGFSPFR [Bradykinin], for which the Kd (usually the constant that tells how readily two partners part at equilibrium) in experiment [2] amounted to 15.3 ± 8 µM.
